Patent US20030207820A1, “Antibacterial compounds with improved pharmacokinetic profiles” (priority 2002, published 2003)
Where two headings read alike, the source gives them in different places.

Assay: Pharmacokinetic profiles by cassette dosing in dog (IV and PO)
Type: in vivo
Conditions: male beagle dogs, 1 mg/kg; for bioavailability: read-out: F (PO), percent bioavailability
Method: The pharmacokinetic profiles of EXAMPLE 20, EXAMPLE 22, EXAMPLE 29 and EXAMPLE 31 were evaluated using cassette dosing protocols in dog. The cassette dosing protocol in dogs combined three test compounds with the reference compound (EXAMPLE 104 of commonly-owned U.S. Pat. No. 5,866,549), each at a dose of 1 mg/kg. The compounds for each cassette were formulated as a solution in an aqueous vehicle containing 10% ethanol and one equivalent hydrochloric acid. Groups of three male beagle dogs received either an intravenous dose (IV) or an oral dose (PO). Sequential blood samples were taken from each animal for 24 hours after dosing. The plasma concentrations of the test compound and reference compounds were simultaneously determined using HPLC-MS/MS following liquid-liquid extraction of the samples. The results are shown in TABLE 2, in which […] is plasma clearance; T1/2 and Tmax are expressed in hours; Cmax is expressed in μg/mL; AUC is expressed in μg·h/mL; F is percent bioavaibility; and volumes of distibution Vc and Vβ are volume of the central compartment and terminal phase distribution, respectively.

Structure (SMILES) | AUC (dog, in vivo, intravenous dose, read-out: AUC (IV)) [ng·h/mL] | clearance (dog, in vivo, intravenous dose, read-out: CLp (IV), plasma clearance (converted)) [mL/min/kg] | half-life (dog, in vivo, intravenous dose, read-out: T½ (IV) (converted)) [h] | Cmax (dog, in vivo, oral dose) [ng/mL] | Tmax (dog, in vivo, oral dose) [h] | AUC (dog, in vivo, oral dose, read-out: AUC (PO)) [ng·h/mL] | bioavailability (dog, in vivo, oral dose) [%] | half-life (dog, in vivo, oral dose, read-out: T½ (PO) (converted)) [h] | Vc (IV), volume of the central compartment (intravenous dose) | Vβ (IV), terminal phase distribution volume (intravenous dose) | bioavailability (dog, plasma, oral dose) [%] | AUC (IV) (intravenous dose) [ng·h/mL] | CLp (IV), plasma clearance (intravenous dose) | T½ (IV) (intravenous dose) [h] | AUC (PO) (oral dose) [ng·h/mL] | Cmax (PO) (oral dose) [ng/mL] | Tmax (PO) (oral dose) [h] | T½ (PO) (oral dose) [h]
CC[C@H]1OC(=O)[C@H](C)C(=O)[C@H](C)[C@@H](O[C@@H]2O[C@H](C)C[C@H](N(C)C)[C@H]2O)C(C)(OCC#Cc2ccc(-c3nnn(C)n3)s2)C[C@@H](C)C(=O)[C@H](C)[C@H]2NC(=O)O[C@@]21C (stereo in doubt) [7B, (3aS,4R,7R,9R,10R,11S,13R,15R,15aR)-10-(((2S,3R,4S,6R)-4-(dimethylamino)-3-hydroxy-6-methyltetrahydro-2H-pyran-2-yl)oxy)-4-ethyl-3a,7,9,11,13,15-hexamethyl-11-((3-(5-(2-methyl-2H-tetraazol-5-yl)thien-2-yl)prop-2-ynyl)oxy)octahydro-2H-oxacyclotetradecino[4,3-d][1,3]oxazole-2,6,8,14(1H,7H,9H)-tetrone] | 11900 | 1.5 | 9 | 720 | 1.3 | 9660 | 80.3 | 6.7 | 0.9 | 1.2 | – | – | – | – | – | – | – | –
CC[C@H]1OC(=O)[C@@](C)(F)C(=O)[C@H](C)[C@@H](O[C@@H]2O[C@H](C)C[C@H](N(C)C)[C@H]2O)[C@@](C)(OCC#Cc2ccc(-c3nnn(C)n3)s2)C[C@@H](C)C(=O)[C@H](C)[C@H]2NC(=O)O[C@@]21C [3B, (3aS,4R,7S,9R,10R,11S,13R,15R,15aR)-10-(((2S,3R,4S,6R)-4-(dimethylamino)-3-hydroxy-6-methyltetrahydro-2H-pyran-2-yl)oxy)-4-ethyl-7-fluoro-3a,7,9,11,13,15-hexamethyl-11-((3-(5-(2-methyl-2H-tetraazol-5-yl)thien-2-yl)prop-2-ynyl)oxy)octahydro-2H-oxacyclotetradecino [4,3-d][1,3]oxazole-2,6,8,14(1H,7H,9H)-tetrone] | – | – | – | – | – | – | – | – | 1.6 | 3.1 | 73.6 | 7290 | 0.16 | 14.4 | 5140 | 250 | 2 | 11.1
CC[C@H]1OC(=O)[C@H](C)C(=O)[C@H](C)[C@@H](O[C@@H]2O[C@H](C)C[C@H](N(C)C)[C@H]2O)[C@@](C)(OC/C=C/c2ccc(-c3nnn(C)n3)s2)C[C@@H](C)C(=O)[C@H](C)[C@H]2NC(=O)O[C@@]21C [4B, (3aS,4R,7R,9R,10R,11S,13R,15R,15aR)-10-(((2S,3R,4S,6R)-4-(dimethylamino)-3-hydroxy-6-methyltetrahydro-2H-pyran-2-yl)oxy)-4-ethyl-3a,7,9,11,13,15-hexamethyl-11-(((2E)-3-(5-(2-methyl-2H-tetraazol-5-yl)thien-2-yl)prop-2-enyl)oxy)octahydro-2H-oxacyclotetradecino[4,3-d][1,3]oxazole-2,6,8,14(1H,7H,9H)-tetrone] | – | – | – | – | – | – | – | – | 0.9 | 1.1 | 63 | 11520 | 0.09 | 8.4 | 6770 | 490 | 1.5 | 7.8
CC[C@H]1OC(=O)[C@@](C)(F)C(=O)[C@H](C)[C@@H](O[C@@H]2O[C@H](C)C[C@H](N(C)C)[C@H]2O)[C@@](C)(OC/C=C/c2ccc(-c3nnn(C)n3)s2)C[C@@H](C)C(=O)[C@H](C)[C@H]2NC(=O)O[C@@]21C [8B, (3aS,4R,7S,9R,10R,11S,13R,15R,15aR)-10-(((2S,3R,4S,6R)-4-(dimethylamino)-3-hydroxy-6-methyltetrahydro-2H-pyran-2-yl)oxy)-4-ethyl-7-fluoro-3a,7,9,11,13,15-hexamethyl-11-(((2E)-3-(5-(2-methyl-2H-tetraazol-5-yl)thien-2-yl)prop-2-enyl)oxy)octahydro-2H-oxacyclotetradecino[4,3-d][1,3]oxazole-2,6,8,14(1H,7H,9H)-tetrone] | – | – | – | – | – | – | – | – | 1.1 | 2.3 | 81.1 | 16130 | 0.07 | 22.9 | 12600 | 480 | 4.5 | 17.2
